One block for each molecule: values may come before it. Starred links: 1 amine or outer side, 2 acyl side, 3 side chain; linkers in the order of their positions; H or OH if unused. Non-standard residues stand in square brackets, D forms with d. Residues, ends and D or L forms follow the SMILES beside them. Groups on a side chain read outwards from the residue. *: point of attachment. Isobutyryl(2-imidazol-4-yl) = CC(C)(C(=O)*)c1c[nH]cn1; γGlu = O=C(O)[C@H](CCC(=O)[*:2])N[*:1]; Palmitoyl = CCCCCCCCCCCCCCCC(=O)*; Aib = CC(C)(N)C(=O)O
Experiments:
glucagon receptor = biological target: T1, glucagon receptor (Homo sapiens, UniProt P47871); test: cAMP induction, firefly luciferase reporter assay, glucagon receptor; format: cell-based; settings: for Activity at Glucagon Receptor % Relative Activity: compared to native glucagon
T1 construct: expressed in transfected cells; host or cells: HEK293
T1 sequence (P47871 26-477): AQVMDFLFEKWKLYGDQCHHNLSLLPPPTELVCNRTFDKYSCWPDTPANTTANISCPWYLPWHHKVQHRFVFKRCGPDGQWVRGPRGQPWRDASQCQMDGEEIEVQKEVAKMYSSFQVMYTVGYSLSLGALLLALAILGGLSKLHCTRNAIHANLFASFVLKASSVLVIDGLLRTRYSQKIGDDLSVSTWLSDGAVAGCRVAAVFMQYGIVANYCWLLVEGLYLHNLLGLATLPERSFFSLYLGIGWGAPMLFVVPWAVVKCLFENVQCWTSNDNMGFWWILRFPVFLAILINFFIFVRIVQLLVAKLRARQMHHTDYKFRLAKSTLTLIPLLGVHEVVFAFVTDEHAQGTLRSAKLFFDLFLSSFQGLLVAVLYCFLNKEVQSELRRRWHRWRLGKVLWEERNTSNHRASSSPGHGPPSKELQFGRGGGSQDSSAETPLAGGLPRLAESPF
Protocol: (§1) The ability of each peptide to induce cAMP was measured in a firefly luciferase-based reporter assay.
(§2) At the end of the incubation, 100 μL of LucLite luminescence substrate reagent (Perkin Elmer, Wellesley, Mass.) were added to each well. The plate was shaken briefly, incubated 10 min in the dark and light output was measured on MicroBeta-1450 liquid scintillation counter (Perkin-Elmer, Wellesley, Mass.).

GLP-1 receptor = biological target: T2, GLP-1 receptor (Homo sapiens, UniProt P43220); test: cAMP induction, firefly luciferase reporter assay, GLP-1 receptor; format: cell-based; settings: for Activity at GLP-1 Receptor % Relative Activity: compared to native GLP-1; for EC50: Activity at GLP-1 Receptor EC50 [nM]
T2 construct: expressed in transfected cells; host or cells: HEK293
T2 sequence (P43220 24-463): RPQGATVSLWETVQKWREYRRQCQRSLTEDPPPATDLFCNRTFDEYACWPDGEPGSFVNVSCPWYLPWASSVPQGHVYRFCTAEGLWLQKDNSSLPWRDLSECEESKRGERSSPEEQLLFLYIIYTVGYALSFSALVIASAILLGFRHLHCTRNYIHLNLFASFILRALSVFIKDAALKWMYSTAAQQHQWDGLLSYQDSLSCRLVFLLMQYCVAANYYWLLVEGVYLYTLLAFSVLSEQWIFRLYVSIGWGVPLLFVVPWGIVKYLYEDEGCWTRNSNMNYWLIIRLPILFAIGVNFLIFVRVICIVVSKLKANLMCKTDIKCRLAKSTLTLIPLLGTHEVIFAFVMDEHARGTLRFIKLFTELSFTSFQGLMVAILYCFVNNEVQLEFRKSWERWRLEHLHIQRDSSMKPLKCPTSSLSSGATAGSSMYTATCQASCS
Protocol: as §1, §2

Activity at Glucagon Receptor % Relative Activity (glucagon receptor; Table 5): 411%
Activity at GLP-1 Receptor % Relative Activity (GLP-1 receptor; Table 5): 708%
SMILES: CCCCCCCCCCCCCCCC(=O)N[C@@H](CCC(=O)NCCCC[C@H](NC(=O)[C@H](CC(=O)O)NC(=O)[C@H](CO)NC(=O)[C@@H](NC(=O)[C@H](Cc1ccccc1)NC(=O)[C@@H](NC(=O)CNC(=O)[C@H](CCC(N)=O)NC(=O)[C@@H](CO)NC(=O)[C@@H](N)Cc1c[nH]cn1)[C@@H](C)O)[C@@H](C)O)C(=O)N[C@@H](CO)C(=O)N[C@@H](CCCCN)C(=O)N[C@@H](Cc1ccc(O)cc1)C(=O)N[C@@H](CC(C)C)C(=O)N[C@@H](CC(=O)O)C(=O)N[C@@H](CCC(=O)O)C(=O)N[C@@H](CCC(N)=O)C(=O)N[C@@H](C)C(=O)N[C@@H](C)C(=O)N[C@@H](CCCCN)C(=O)N[C@@H](CCC(=O)O)C(=O)N[C@@H](Cc1ccccc1)C(=O)N[C@H](C(=O)N[C@@H](CS)C(=O)N[C@@H](Cc1c[nH]c2ccccc12)C(=O)N[C@@H](CC(C)C)C(=O)N[C@@H](CC(C)C)C(=O)N[C@@H](CC(=O)O)C(=O)N[C@H](C(N)=O)[C@@H](C)O)[C@@H](C)CC)C(=O)O [compound 53]

EC50 (glucagon receptor; Activity at Glucagon Receptor EC50 [nM], Table 5): 0.107 nM
Activity at Glucagon Receptor % Relative Activity (glucagon receptor; Table 5): 35%
Activity at GLP-1 Receptor % Relative Activity (GLP-1 receptor; Table 5): 42%
SMILES: CCCCCCCCCCCCCCCC(=O)N[C@@H](CCC(=O)NCCCC[C@H](NC(=O)[C@H](CC(=O)O)NC(=O)[C@H](CO)NC(=O)[C@@H](NC(=O)[C@H](Cc1ccccc1)NC(=O)[C@@H](NC(=O)CNC(=O)[C@H](CCC(N)=O)NC(=O)[C@H](CO)NC(=O)C(C)(C)c1c[nH]cn1)[C@@H](C)O)[C@@H](C)O)C(=O)N[C@@H](CO)C(=O)N[C@@H](CCCCN)C(=O)N[C@@H](Cc1ccc(O)cc1)C(=O)N[C@@H](CC(C)C)C(=O)N[C@@H](CC(=O)O)C(=O)N[C@@H](CCC(=O)O)C(=O)N[C@@H](CCC(N)=O)C(=O)N[C@@H](C)C(=O)N[C@@H](C)C(=O)N[C@@H](CCCCN)C(=O)N[C@@H](CCC(=O)O)C(=O)N[C@@H](Cc1ccccc1)C(=O)N[C@H](C(=O)N[C@@H](CS)C(=O)N[C@@H](Cc1c[nH]c2ccccc12)C(=O)N[C@@H](CC(C)C)C(=O)N[C@@H](CC(C)C)C(=O)N[C@@H](CC(=O)O)C(=O)N[C@H](C(N)=O)[C@@H](C)O)[C@@H](C)CC)C(=O)O [compound 54] ({Isobutyryl(2-imidazol-4-yl)}-SQGTFTSDK([γGlu-Palmitoyl])SKYLDEQAAKEFICWLLDT-NH2)

Activity at Glucagon Receptor % Relative Activity (glucagon receptor; Table 5): 7%
Activity at GLP-1 Receptor % Relative Activity (GLP-1 receptor; Table 5): 16%
SMILES: CCCCCCCCCCCCCCCC(=O)N[C@@H](CCC(=O)NCCCC[C@H](NC(=O)[C@H](CC(=O)O)NC(=O)[C@H](CO)NC(=O)[C@@H](NC(=O)[C@H](Cc1ccccc1)NC(=O)[C@@H](NC(=O)CNC(=O)[C@H](CCC(N)=O)NC(=O)[C@@H](CO)NC(=O)[C@@H](N)Cc1c[nH]cn1)[C@@H](C)O)[C@@H](C)O)C(=O)N[C@@H](CO)C(=O)N[C@@H](CCCCN)C(=O)N[C@@H](Cc1ccc(O)cc1)C(=O)N[C@@H](CC(C)C)C(=O)N[C@@H](CC(=O)O)C(=O)N[C@@H](CCC(=O)O)C(=O)N[C@@H](CCC(N)=O)C(=O)N[C@@H](C)C(=O)N[C@@H](C)C(=O)N[C@@H](CCCCN)C(=O)N[C@@H](CCC(=O)O)C(=O)N[C@@H](Cc1ccccc1)C(=O)N[C@H](C(=O)N[C@@H](CS)C(=O)N[C@@H](Cc1c[nH]c2ccccc12)C(=O)N[C@@H](CC(C)C)C(=O)N[C@@H](CC(C)C)C(=O)N[C@@H](CC(=O)O)C(=O)N[C@H](C(=O)NCC(=O)O)[C@@H](C)O)[C@@H](C)CC)C(=O)O [compound 55]

Activity at Glucagon Receptor % Relative Activity (glucagon receptor; Table 5): 272%
EC50 (GLP-1 receptor; Table 5): 0.068 nM
Activity at GLP-1 Receptor % Relative Activity (GLP-1 receptor; Table 5): 125%
SMILES: CCCCCCCCCCCCCCCC(=O)N[C@@H](CCC(=O)NCCCC[C@H](NC(=O)[C@H](CC(=O)O)NC(=O)[C@H](CO)NC(=O)[C@@H](NC(=O)[C@H](Cc1ccccc1)NC(=O)[C@@H](NC(=O)CNC(=O)[C@H](CCC(N)=O)NC(=O)[C@@H](CO)NC(=O)[C@@H](N)Cc1c[nH]cn1)[C@@H](C)O)[C@@H](C)O)C(=O)N[C@@H](CO)C(=O)N[C@@H](CCCCN)C(=O)N[C@@H](Cc1ccc(O)cc1)C(=O)N[C@@H](CC(C)C)C(=O)N[C@@H](CC(=O)O)C(=O)N[C@@H](CCC(=O)O)C(=O)N[C@@H](CCC(N)=O)C(=O)N[C@@H](C)C(=O)N[C@@H](C)C(=O)N[C@@H](CCCCN)C(=O)N[C@@H](CCC(=O)O)C(=O)N[C@@H](Cc1ccccc1)C(=O)N[C@H](C(=O)N[C@@H](CS)C(=O)N[C@@H](Cc1c[nH]c2ccccc12)C(=O)N[C@@H](CC(C)C)C(=O)N[C@@H](CC(C)C)C(=O)N[C@@H](CC(=O)O)C(=O)N[C@H](C(=O)NCC(=O)NCC(=O)O)[C@@H](C)O)[C@@H](C)CC)C(=O)O [compound 56]

Activity at Glucagon Receptor % Relative Activity (glucagon receptor; Table 6): 80%
EC50 (GLP-1 receptor; Table 6): 0.068 nM
Activity at GLP-1 Receptor % Relative Activity (GLP-1 receptor; Table 6): 125%
SMILES: CCCCCCCCCCCCCCCC(=O)N[C@@H](CCC(=O)NCCCC[C@H](NC(=O)[C@H](CC(=O)O)NC(=O)[C@H](CO)NC(=O)[C@@H](NC(=O)[C@H](Cc1ccccc1)NC(=O)[C@@H](NC(=O)CNC(=O)[C@H](CCC(N)=O)NC(=O)C(C)(C)NC(=O)[C@@H](N)Cc1c[nH]cn1)[C@@H](C)O)[C@@H](C)O)C(=O)N[C@@H](CO)C(=O)N[C@@H](CCCCN)C(=O)N[C@@H](Cc1ccc(O)cc1)C(=O)N[C@@H](CC(C)C)C(=O)N[C@@H](CC(=O)O)C(=O)N[C@@H](CCC(=O)O)C(=O)N[C@@H](CCCNC(=N)N)C(=O)N[C@@H](C)C(=O)N[C@@H](C)C(=O)N[C@@H](CCC(N)=O)C(=O)N[C@@H](CC(=O)O)C(=O)N[C@@H](Cc1ccccc1)C(=O)N[C@H](C(=O)N[C@@H](CS)C(=O)N[C@@H](Cc1c[nH]c2ccccc12)C(=O)N[C@@H](CC(C)C)C(=O)N[C@@H](CC(C)C)C(=O)N[C@@H](CC(=O)O)C(=O)N[C@H](C(N)=O)[C@@H](C)O)C(C)C)C(=O)O [compound 58]

Activity at Glucagon Receptor % Relative Activity (glucagon receptor; Table 6): 490%
EC50 (GLP-1 receptor; Table 6): 0.019 nM
Activity at GLP-1 Receptor % Relative Activity (GLP-1 receptor; Table 6): 484%
SMILES: CCCCCCCCCCCCCCCC(=O)N[C@@H](CCC(=O)NCCCC[C@H](NC(=O)[C@H](CC(=O)O)NC(=O)[C@H](CO)NC(=O)[C@@H](NC(=O)[C@H](Cc1ccccc1)NC(=O)[C@@H](NC(=O)CNC(=O)[C@H](CCC(N)=O)NC(=O)[C@@H](C)NC(=O)[C@@H](N)Cc1c[nH]cn1)[C@@H](C)O)[C@@H](C)O)C(=O)N[C@@H](CO)C(=O)N[C@@H](CCCCN)C(=O)N[C@@H](Cc1ccc(O)cc1)C(=O)N[C@@H](CC(C)C)C(=O)N[C@@H](CC(=O)O)C(=O)N[C@@H](CCC(=O)O)C(=O)N[C@@H](CCCNC(=N)N)C(=O)N[C@@H](C)C(=O)N[C@@H](C)C(=O)N[C@@H](CCC(N)=O)C(=O)N[C@@H](CC(=O)O)C(=O)N[C@@H](Cc1ccccc1)C(=O)N[C@H](C(=O)N[C@@H](CS)C(=O)N[C@@H](Cc1c[nH]c2ccccc12)C(=O)N[C@@H](CC(C)C)C(=O)N[C@@H](CC(C)C)C(=O)N[C@@H](CC(=O)O)C(=O)N[C@H](C(N)=O)[C@@H](C)O)C(C)C)C(=O)O [compound 59]

SMILES: CC(C)C[C@H](NC(=O)[C@H](CC(C)C)NC(=O)[C@H](Cc1c[nH]c2ccccc12)NC(=O)[C@H](CS)NC(=O)[C@@H](NC(=O)[C@H](Cc1ccccc1)NC(=O)[C@H](CCC(=O)O)NC(=O)[C@H](CCCCN)NC(=O)[C@H](C)NC(=O)[C@H](CCCNC(=N)N)NC(=O)[C@H](CCCCN)NC(=O)C(C)(C)NC(=O)[C@H](CC(=O)O)NC(=O)[C@H](CC(C)C)NC(=O)[C@H](Cc1ccc(O)cc1)NC(=O)[C@H](CCCCN)NC(=O)[C@H](CO)NC(=O)[C@H](Cc1ccc(O)cc1)NC(=O)[C@H](CC(=O)O)NC(=O)[C@H](CO)NC(=O)[C@@H](NC(=O)[C@H](Cc1ccccc1)NC(=O)[C@@H](NC(=O)CNC(=O)[C@H](CCC(N)=O)NC(=O)[C@@H](CO)NC(=O)[C@@H](N)Cc1c[nH]cn1)[C@@H](C)O)[C@@H](C)O)C(C)C)C(=O)N[C@@H](CC(=O)O)C(=O)NCC(=O)NCC(=O)N1CCC[C@H]1C(=O)N[C@@H](CO)C(=O)N[C@@H](CO)C(=O)NCC(=O)N[C@@H](C)C(=O)N1CCC[C@H]1C(=O)N1CCC[C@H]1C(=O)N1CCC[C@H]1C(=O)N[C@@H](CO)C(N)=O [compound 60] (H-H[dS]QGTFTSDYSKYLD[Aib]KRAKEFVCWLLDGGPSSGAPPPS-NH2; N-terminus assumed)
EC50 (glucagon receptor; Activity at Glucagon Receptor EC50 (nM), Table 2B): 0.006 nM
Activity at Glucagon Receptor % Relative Activity (glucagon receptor; Table 2B): 257%
Activity at GLP-1 Receptor % Relative Activity (GLP-1 receptor; Table 2B): 19%

SMILES: CC(C)C[C@H](NC(=O)[C@H](CC(C)C)NC(=O)[C@H](Cc1c[nH]c2ccccc12)NC(=O)[C@H](CS)NC(=O)[C@@H](NC(=O)[C@H](Cc1ccccc1)NC(=O)[C@H](CCC(=O)O)NC(=O)[C@H](CCCCN)NC(=O)[C@H](C)NC(=O)[C@H](CCCNC(=N)N)NC(=O)[C@H](CCCCN)NC(=O)[C@H](CCC(=O)O)NC(=O)[C@H](CC(=O)O)NC(=O)[C@H](CC(C)C)NC(=O)[C@H](Cc1ccc(O)cc1)NC(=O)[C@H](CCCCN)NC(=O)[C@H](CO)NC(=O)[C@H](Cc1ccc(O)cc1)NC(=O)[C@H](CC(=O)O)NC(=O)[C@H](CO)NC(=O)[C@@H](NC(=O)[C@H](Cc1ccccc1)NC(=O)[C@@H](NC(=O)CNC(=O)[C@H](CCC(N)=O)NC(=O)[C@@H](CO)NC(=O)[C@@H](N)Cc1c[nH]cn1)[C@@H](C)O)[C@@H](C)O)C(C)C)C(=O)N[C@@H](CC(=O)O)C(=O)NCC(=O)NCC(=O)N1CCC[C@H]1C(=O)N[C@@H](CO)C(=O)N[C@@H](CO)C(=O)NCC(=O)N[C@@H](C)C(=O)N1CCC[C@H]1C(=O)N1CCC[C@H]1C(=O)N1CCC[C@H]1C(=O)N[C@@H](CO)C(N)=O [compound 61] (H-H[dS]QGTFTSDYSKYLDEKRAKEFVCWLLDGGPSSGAPPPS-NH2; N-terminus assumed)
Activity at Glucagon Receptor % Relative Activity (glucagon receptor; Table 2B): 88%
Activity at GLP-1 Receptor % Relative Activity (GLP-1 receptor; Table 2B): 39%

From patent US8703701B2 (Indiana University Research and Technology Corporation, priority 2009, dated 2014)
